Test results: patent US5463118A, “N-(l-aspartyl)amino alcohol derivative and sweetener containing the same” (Takasago International Corporation, priority 1987, dated 1995)
Read-outs that look alike come from different tables or passages of the source. Where a SMILES comes first, the peptide text is derived from it.

How the values were obtained:
[1] = sweetness characteristics in standard cola beverage, nine panelists; conditions: cola beverage stored at 37° C. for 26 days, 1 extremely poor to 9 extremely excellent, sweetener at 30 to 520 ppm
Method: The sweetness characteristics were evaluated in the following manner.
A standard beverage was prepared by adding the following materials to 1600 ml of carbonated water:
Various sweeteners were added to the standard beverage each at a definite concentration. The beverages thus obtained were stored at 37° C. for 26 days and then evaluated by nine panelists according to the following criterion.

[2] = taste intensity threshold value by a limit method, panel of five skilled flavorists; conditions: for Taste intensity threshold value: dissolved in water, limit method, five skilled flavorists; for Degree of sweetness: sucrose = 1, from Table 1
Method: Each of (2R,3R)-3-N-(L-aspartyl)amino-1-2-butanol (XVI') obtained in Example 2, 2-8), which will be referred to as "compound A" hereinafter, the (2R,3R)-3-N-(L-aspartyl)amino-1-2-butanol (XVII) obtained in Example 1, 1-15), which will be referred to as "compound B" hereinafter, APM and sucrose was dissolved in water. The threshold value of each compound was determined by a limit method by a panel consisting of five skilled flavorists.

[3] = degree of sweetness based on sucrose of compounds of differing absolute configuration; conditions: for Degree of sweetness based on sucrose: Table 2
Method: Compounds of absolute configurations (a) and (b) of (RS,RS) and (S,S) were prepared by way of trial, and the degrees and characteristics of sweetness thereof were evaluated.

[4] = degree of sweetness of L-aspartyl fenchyl amino alcohols by absolute configuration at (a) and (b); conditions: for Degree of sweetness: R1 methyl, R2 fenchyl, absolute configuration (a),(b)
Method: Subsequent studies by the inventors have disclosed that the sweetness essentially depends on the absolute configuration at the (a) and (b) positions in the following formula (i). For example, compounds of the following general formula: [drawing 1]
wherein R1 is methyl group while R2 is fenchyl group:
The absolute configurations at the (a) and (b) positions are determined by resolving amino alcohol derivatives with tartaric acid to thereby give p-bromobenzoic acid amide derivatives of the following formula (ii) and then analyzing the crystal structures thereof with X-rays: [drawing 2]

[5] = stability of aqueous solution (percent remaining by HPLC, 0.1M phosphate buffer pH 4.0, 80° C.); type: physicochemical; conditions: general statement
Method: Each of compounds A and B, APM and L-aspartyl-DL-aminomalonic acid methyl fenchyl ester as disclosed in JP-A-49-30566, which will be abbreviated as "AMF" hereinafter, was dissolved in a 0.1M phosphate buffer solution (pH 4.0) at a concentration of 0.2%. The obtained solution was maintained at 80° C. and the percent remaining was monitored by high performance liquid chromatography with a lapse of time to thereby compare the stabilities of these solutions with each other.

[6] = sweetness characteristics of diluted aqueous solution
solubility in water = type: physicochemical
[7] = among dipeptide esters known so far; cited from earlier work
[8] = versus APM; cited from earlier work

For C[C@@H]1[C@H]2CC[C@H](C2)[C@H]1C[C@@H](O)[C@@H](C)NC(=O)[C@@H](N)CC(=O)O [Compound A, (2R,3R)-3-N-(L-aspartyl)amino-1-2-butanol], the Average score [1] was 6.2, the “Taste intensity threshold value” [2] was 0.00024% and the Degree of sweetness [2] was 2,500 time. The “Degree of sweetness based on sucrose” value [3] was 2,500 time.
For C[C@H](NC(=O)[C@@H](N)CC(=O)O)[C@@H](O)CC1C2(C)CCC(C2)C1(C)C (stereo partly drawn) [(S,S)], the “degree of sweetness, in words” value [4] was “scarcely any sweetness” and the Degree of sweetness [4] was 0.
In the case of C[C@@H](NC(=O)[C@@H](N)CC(=O)O)[C@@H](O)CC1C2(C)CCC(C2)C1(C)C (stereo partly drawn) [(R,S)], the “degree of sweetness, in words” value [4] is reported as “scarcely any sweetness” and the Degree of sweetness [4] is reported as 0.
With C[C@H](NC(=O)[C@@H](N)CC(=O)O)[C@H](O)CC1C2(C)CCC(C2)C1(C)C (stereo partly drawn) [(S,R)] the “degree of sweetness, in words” value [4] was “scarcely any sweetness” and the Degree of sweetness [4] was 0.
With C[C@@H](NC(=O)[C@@H](N)CC(=O)O)[C@H](O)CC1CC2CCC1(C)C2 (stereo partly drawn) [(2R,3R)-3-N-(L-aspartyl)amino-1-(1-methyl-2-norbornyl)-2-butanol] the heat stability [5] was “good in heat stability”, the “stability in acidic aqueous solutions” value [5] was “excellent in stability in acidic aqueous solutions” and the “disagreeable tastes (bitter taste, bad taste, unpleasant aftertaste)” value [6] was “almost no disagreeable tastes”. For the same molecule, the sweetness characteristics [6] was “closely similar to those of sucrose” and the solubility in water (solubility in water) was “highly soluble in water”.
In the case of CC(NC(=O)[C@@H](N)CC(=O)O)C(O)C[C@@H]1C(C)(C)[C@@H]2CC[C@@]1(C)C2 (stereo partly drawn) [C, 3-N-(L-aspartyl)-amino-1-d-α-fenchyl-2-butanol], the Average score [1] is reported as 4.1, the “Degree of sweetness based on sucrose” value [3] is reported as 1,800 time and the Degree of sweetness [4] is reported as 1,800.
For OC[C@H]1O[C@@](CO)(O[C@H]2O[C@H](CO)[C@@H](O)[C@H](O)[C@H]2O)[C@@H](O)[C@@H]1O [Sucrose, sucrose, reference compound], the “Taste intensity threshold value” [2] was 0.6% and the Degree of sweetness [2] was 1 time.
For CC(NC(=O)[C@@H](N)CC(=O)O)C(O)C[C@@H]1C[C@@H]2CC[C@@]1(C)C2 (stereo partly shown), the Average score [1] was 5.1 and the “Degree of sweetness based on sucrose” value [3] was 800 time.
In the case of C[C@@H](NC(=O)[C@@H](N)CC(=O)O)[C@H](O)CC1C2(C)CCC(C2)C1(C)C (stereo partly drawn) [(R,R)], the “degree of sweetness, in words” value [4] is reported as “highest degree of sweetness” and the Degree of sweetness [4] is reported as 12,500.
For C[C@@H]1[C@H]2CC[C@H](C2)[C@H]1C[C@H](O)[C@H](C)NC(=O)[C@@H](N)CC(=O)O [(2S, 3S)-3-N-(L-aspartyl)amino-1-2-butanol], the “sweetness, in words” value [3] was “scarcely any sweetness” and the “Degree of sweetness based on sucrose” value [3] was 0 time.
In the case of COC(=O)C(NC(=O)[C@@H](N)CC(=O)O)C(=O)OC1C2(C)CCC(C2)C1(C)C (mixture of isomers) [AMF, L-aspartyl-DL-aminomalonic acid methyl fenchyl ester], the “degree of sweetness, in words” value [7] is given as “highest degree of sweetness” and the “stability at 80° C. and at a pH of 4” value [8] is given as “inferior to APM in stability at 80 °C and at a pH of 4”.
For CC(NC(=O)[C@@H](N)CC(=O)O)C(O)C[C@@H]1[C@@H]2CC[C@@H](C2)[C@H]1C (stereo partly shown), the Average score [1] was 5.0 and the “Degree of sweetness based on sucrose” value [3] was 850 time.
In the case of CC1C2CCC(C2)C1C[C@@H](O)[C@@H](C)NC(=O)[C@@H](N)CC(=O)O (stereo partly drawn) [(2R,3R)-3-N-(L-aspartyl)amino-1-(3-methyl-2-norbornyl)-2-butanol], the heat stability [5] is reported as “good in heat stability”, the “stability in acidic aqueous solutions” value [5] is reported as “excellent in stability in acidic aqueous solutions” and the “disagreeable tastes (bitter taste, bad taste, unpleasant aftertaste)” value [6] is reported as “almost no disagreeable tastes”. For the same molecule, the sweetness characteristics [6] was “closely similar to those of sucrose” and the solubility in water (solubility in water) was “highly soluble in water”.
For C[C@@H](NC(=O)[C@@H](N)CC(=O)O)[C@H](O)C[C@@H]1C[C@@H]2CC[C@@]1(C)C2 [Compound B, (2R,3R)-3-N-(L-aspartyl)amino-1-2-butanol], the Average score [1] was 6.3, the “Taste intensity threshold value” [2] was 0.00018% and the Degree of sweetness [2] was 3,300 time. For the same molecule, the “Degree of sweetness based on sucrose” value [3] was 3,300 time.
In the case of COC(=O)[C@H](Cc1ccccc1)NC(=O)[C@@H](N)CC(=O)O [APM, L-aspartyl-L-phenylalanine methyl ester, reference compound] (H-Asp-Phe-OMe), the Average score [1] is reported as 5.8, the “Taste intensity threshold value” [2] is reported as 0.004% and the Degree of sweetness [2] is reported as 150 time. The “Degree of sweetness based on sucrose” value [3] was 250 time.
